The values below are quoted from earlier work in EP4755400A1, “ANTIBODY-DRUG CONJUGATE CONTAINING GLYCOSYLPYRIDINE LINKER” (Novocodex Biopharmaceuticals Co., Ltd., priority 2023, dated 2025).

The data set concerns human carcinoma lines.

Take `COc1cccc2c1C(=O)c1c(O)c3c(c(O)c1C2=O)C[C@@](O)(C(=O)CO)C[C@@H]3O[C@H]1C[C@H](N)[C@H](O)[C@H](C)O1` [doxorubicin]: the half-maximal inhibitory concentration (IC50) was 100 to 200 nM.

The IC50 is the point on the concentration scale where inhibition reaches its midpoint.
